Test results as given in patent US4385112A (priority 1980, dated 1983).

How the values were obtained:
Type in all cases: biochemical, Pseudomonas putida B-0781
nucleoside oxidase [1] = assay: Substrate specificity: relative enzymatic activity on various substrates; settings: substrate each 1 mM concentration
Method: Relative enzymatic activities on various substrates (nucleoside, nucleic acid base, sugar, and nucleotide, each 1 mM concentration) shown in Table 1 were measured.
A reaction mixture (0.5 ml) consisting of 0.2 M dimethylglutarate-NaOH buffer (pH 6.0) 0.2 ml, 0.2 w/w% N,N-diethyl-m-toluidine 0.05 ml, 0.3 w/w% 4-aminoantipyrine 0.05 ml, 10 mM adenosine 0.05 ml and distilled water 0.10 ml was pre-incubated at 37° C. for 3 minutes. After adding enzyme solution (20 μl), the mixture was incubated at 37° C. for 10 minutes, and 0.5 ml of 4 M urea solution containing 0.2% cetylpyridiniumchloride was added to stop the reaction. […] Then the enzyme solution was replaced by distilled water (20 μl) as a control (AB).
(§1) Enzymatic activity should be measured within the value of As below 0.15.
One unit (1 U.) of enzyme activity is that amount of enzyme such that 1μ mole of hydrogen peroxide is generated in one minute at 37° C. with adenosine as substrate, and represented by the following equation: […]

nucleoside oxidase [2] = assay: Effect of metal ions on enzyme activity (Table 2); parameters: concentration or dose not given beside the values; settings: control 100; 10 min
Method: as §1
(§2) One unit (1 U.) of enzyme activity is that amount of enzyme such that 1μ mole of hydrogen peroxide is generated in one minute at 37° C. with adenosine as substrate, and represented by the following equation:
(§3) Enzyme activity (U/ml)=1.25×(As-AB)×dilution ratio.

nucleoside oxidase [3] = assay: Km value of the enzyme; settings: for adenosine
Method: as §1, §2, §3

nucleoside oxidase [4] = assay: Amount of oxygen consumption and hydrogen peroxide generation in the reaction
Method: The amount of consumed oxygen (measured by an oxygen electrode) and generated hydrogen peroxide (colorimetric assay at 545 nm) were measured. Results: adenosine 0.05μ mole; consumed oxygen 0.097μ mole; and generated hydrogen peroxide 0.101μ mole.

nucleoside oxidase [5] = assay: Effect of surface active agent on enzyme activity (Table 3); settings: 0.1 w/w % surface active agent; None 100
Method: as §1, §2, §3

Row | Compound | Relative activity (nucleoside oxidase [1]) | also measured
1 | Nc1ncnc2c1ncn2[C@H]1C[C@H](O)[C@@H](CO)O1 [2'-deoxyadenosine] | 99.1% | –
2 | Nc1ncnc2c1ncn2[C@@H]1O[C@H](COP(=O)(O)OP(=O)(O)O)[C@@H](O)[C@H]1O [5'-ADP] | 0% | –
3 | Nc1ncnc2c1ncn2[C@@H]1O[C@H](COP(=O)(O)O)[C@@H](O)[C@H]1O [5'-AMP] | 0% | –
4 | Nc1ncnc2c1ncn2[C@@H]1O[C@H](COP(=O)(O)OP(=O)(O)OP(=O)(O)O)[C@@H](O)[C@H]1O [5'-ATP] | 0% | –
5 | Nc1ccn([C@@H]2O[C@H](COP(=O)(O)O)[C@@H](O)[C@H]2O)c(=O)n1 [5'-CMP] | 0% | –
6 | Nc1nc2c(ncn2[C@@H]2O[C@H](COP(=O)(O)O)[C@@H](O)[C@H]2O)c(=O)[nH]1 [5'-GMP] | 0% | –
7 | O=c1ccn([C@@H]2O[C@H](COP(=O)(O)O)[C@@H](O)[C@H]2O)c(=O)[nH]1 [5'-UMP] | 0% | –
8 | O=c1[nH]c(=O)c2ncn([C@@H]3O[C@H](COP(=O)(O)O)[C@@H](O)[C@H]3O)c2[nH]1 [5'-XMP] | 0% | –
9 | [Ba+2] [Ba^2+] | – | Relative activity (nucleoside oxidase [2]): 100%
10 | [Ca+2] [Ca^2+] | – | Relative activity (nucleoside oxidase [2]): 102%
11 | [Co+2] [Co^2+] | – | Relative activity (nucleoside oxidase [2]): 104%
12 | O=C[C@H](O)[C@H](O)[C@H](O)CO [D-ribose] | 0% | –
13 | O=C(O)CN(CCN(CC(=O)O)CC(=O)O)CC(=O)O [EDTA, reference compound] | – | Relative activity (nucleoside oxidase [2]): 98%
14 | [Mg+2] [Mg^2++] | – | Relative activity (nucleoside oxidase [2]): 104%
15 | [Mn+2] [Mn^2+] | – | Relative activity (nucleoside oxidase [2]): 110%
16 | O=C(O)c1cc[c]([Hg][Cl])cc1 [PCMB, reference compound] | – | Relative activity (nucleoside oxidase [2]): 102%
17 | [Zn+2] [Zn^2+] | – | Relative activity (nucleoside oxidase [2]): 94%
18 | Nc1ncnc2nc[nH]c12 [adenine] | 0% | –
19 | Nc1ncnc2c1ncn2[C@@H]1O[C@H](CO)[C@@H](O)[C@H]1O [adenosine] | 100% | Km (nucleoside oxidase [3]): 45 µM; moles of hydrogen peroxide generated per 1 mole of adenosine (nucleoside oxidase [4]): 2 mol; moles of oxygen consumed per 1 mole of adenosine (nucleoside oxidase [4]): 2 mol; generated hydrogen peroxide (nucleoside oxidase [4]; adenosine 0.05 μ mole, nucleoside oxidase 3 U., colorimetric assay at 545 nm): 0.101 μ mole; consumed oxygen (nucleoside oxidase [4]; adenosine 0.05 μ mole, nucleoside oxidase 3 U., oxygen electrode): 0.097 μ mole

Row | Compound | Relative activity (nucleoside oxidase [1]) | also measured
20 | Nc1ncnc2c1ncn2[C@@H]1O[C@H](CO)[C@@H](O)[C@@H]1O [arabinosyladenine, reference compound] | 67.2% | –
21 | Nc1ccn([C@@H]2O[C@H](CO)[C@@H](O)[C@@H]2O)c(=O)n1 [arabinosylcytosine, 1-β-D-arabinofuranosylcytosine, reference compound] | 8.1% | –
22 | NC(=O)c1ncn([C@@H]2O[C@H](CO)[C@@H](O)[C@H]2O)c1O [bredinine, 4-carbamoyl-1-D-ribofuranosylimidazolium-5-olate, reference compound] | 48.2% | –
23 | CCCCCCCCCCCCCCCC[N+](C)(C)C.[Cl-] [cetyl trimethylammonium chloride] | – | Relative activity (nucleoside oxidase [5]): 78%
24 | Nc1ccn([C@@H]2O[C@H](CO)[C@@H](O)[C@H]2O)c(=O)n1 [cytidine] | 65.7% | –
25 | Nc1nc2c(ncn2[C@@H]2O[C@H](CO)[C@@H](O)[C@H]2O)c(=O)[nH]1 [guanosine] | 97.1% | –
26 | O=c1[nH]cnc2nc[nH]c12 [hypoxanthine] | 0% | –
27 | OC[C@H]1O[C@@H](n2cnc3c(O)ncnc32)[C@H](O)[C@@H]1O [inosine] | 91.4% | –
28 | C[C@H](CCC(=O)O)[C@H]1CC[C@H]2[C@@H]3CC[C@@H]4C[C@H](O)CC[C@]4(C)[C@H]3C[C@H](O)[C@]12C [sodium deoxycholate] | – | Relative activity (nucleoside oxidase [5]): 102%
29 | CCCCCCCCCCCCOS(=O)(=O)[O-].[Na+] [sodium dodecyl sulfate] | – | Relative activity (nucleoside oxidase [5]): 66%
30 | Cc1cn([C@H]2C[C@H](O)[C@@H](CO)O2)c(=O)[nH]c1=O [thymidine] | 94.3% | –
31 | Cc1c[nH]c(=O)[nH]c1=O [thymine] | 0% | –
32 | O=c1cc[nH]c(=O)[nH]1 [uracil] | 0% | –
33 | O=c1ccn([C@@H]2O[C@H](CO)[C@@H](O)[C@H]2O)c(=O)[nH]1 [uridine] | 94.3% | –
34 | O=c1[nH]c(=O)c2[nH]cnc2[nH]1 [xanthine] | 0% | –
35 | O=c1[nH]c(=O)c2ncn([C@@H]3O[C@H](CO)[C@@H](O)[C@H]3O)c2[nH]1 [xanthosine] | 14.3% | –
36 | O=P(O)(O)O[C@H]1O[C@H](CO)[C@@H](O)[C@H]1O [α-D-ribose-1-phosphate] | 0% | –
37 | Triton X-100 | – | Relative activity (nucleoside oxidase [5]): 104%
38 | sodium lauryl benzene sulfonate | – | Relative activity (nucleoside oxidase [5]): 38%
